Converted amounts (≈) assume the structure as drawn. Where only a bound is given, the exact number is not on record here.

These results are taken from EPA's ToxValDB 9.5 (doi:10.2903/j.efsa.2016.4575).

Data set [1] has as its system Bibionidae. The settings on record: chronic/long-term; duration: 23 days.
In data set [2] the test system is Daphnia magna. The settings on record: chronic/long-term; duration: 21 days.
The subject of data set [3] is Canidae. As to conditions: Dog Other; for NOAEL: oral, hematological.
The test system of data set [4] is Bird. The settings on record: acute; oral; unspecified; mortality.
Data set [5] relates to Rattus norvegicus.
Data set [6] has as its system Apis mellifera. As to conditions: acute, mortality.
Data set [7] deals with Coturnix japonica. As to conditions: acute; oral; M; mortality.
Data set [8] concerns Colinus virginianus. As to conditions: chronic.
Data set [9] deals with Folsomia candida. As to conditions: chronic/long-term; reproduction.
Data set [10] concerns Oncorhynchus mykiss.
The test system of data set [11] is Tagia sp. As to conditions: chronic/long-term; mortality.
The test system of data set [12] is Typhlodromus pyri. Put plainly: LR50; higher = less toxic. As to conditions: not reported; mortality.

Turning to `COc1cc(OC)nc(NC(=O)NS(=O)(=O)c2ncccc2C(F)(F)F)n1` [Flazasulfuron], the NOEC was found to be 0.1 mg/L in data set [1]; 6.2 mg/L in data set [2]; 125 mg/kg in data set [9]; 5 mg/L in [10] (chronic/long-term, duration: 21 days); 8 mg/kg in data set [11]. Besides, the no observed adverse effect level (NOAEL) (as a rule, the highest dose or exposure tested at which no adverse effect was seen) is 2 mg/kg-day in data set [3] (chronic, duration: 1 years); 2 mg/kg-day in data set [3] (subchronic, duration: 90 days); 1.3 mg/kg-day in data set [5] (chronic, duration: 2 years, other); 11 mg/kg-day in [5] (reproduction developmental); 100 mg/kg-day in data set [5] (reproduction developmental, body weight); 95.9 mg/kg-day in data set [8]. In [3] (repeat dose other), the LEC worked out at 2 mg/kg-day. The LD50 in data set [4] is 2120 mg/kg-day; in data set [5] (acute, oral, mortality), 1320 mg/kg-day; in data set [6] (dermal), over 25.9 µg/piece; in [6] (oral, unspecified), over 46.3 µg/piece; in data set [7] it was 995 mg/kg-day. In addition, the LC50 (usually the concentration that kills 50% of the test population) in [10] (acute, duration: 96 hours, mortality) worked out at 22 µg/mL (≈ 54 µM). The LR50 in [12] was over 50 g/ha.
